From the supplement of paper PMC10949913

How the values were obtained:
Test in all cases: area under concentration-response curve (viability) (AUC (a.u.)); higher = less active
Details in all cases: 48 h
CU-ACC1 = test system: CU-ACC1
In short: (§1)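 Luminescence from CellTiter-Glo, read after 48 h, measured three adrenocortical carcinoma cell lines treated in 1,536-well plates with library compounds at 11 concentrations. Values were normalised per plate to vehicle and empty-well controls. The AC50 and area under the curve come from fitted concentration-response curves in inhibitory or non-responding classes only.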

CU-ACC2 = test system: CU-ACC2
In short: as §1

NCI-H295R = test system: NCI-H295R
In short: as §1

Structure (SMILES) | area under concentration-response curve (CU-ACC1) | area under concentration-response curve (CU-ACC2) | area under concentration-response curve (NCI-H295R)
COc1cc2nccc(Oc3ccc(NC(=O)Nc4ccc(F)cc4F)c(F)c3)c2cc1OC | 548 | 623 | 515
COc1ccc(Nc2nccc(NCCO)n2)cc1 | 496 | 578 | 517
CN1C(=O)\C(=C/C(=C1/NC2=C(F)C=C(I)C=C2)C(=O)NOCCO)C | 335 | 519 | 550
C[C@]12COC(=O)C[C@@H]1CC[C@@H]1[C@@H]2CC[C@@]2(C)[C@H]1CC[C@]2(C)O | 448 | 482 | 447
C1CN\2C[C@@H](\N=C2S1)C3=CC=CC=C3 | 506 | 626 | 575
C[N+](C)(C)CC(=O)O | 501 | 611 | 560
O=C(O)/C=C/c1ccc(Cn2ccnc2)cc1 | 485 | 486 | 572
COc1cccc(Nc2c(C(N)=O)cnc3c(C)cc([S+](=O)([O-])c4cccc(C(=O)N(C)C)c4)cc23)c1 | 466 | 578 | 545
N/C1=N/C(=O)C/2=C(NC[C@@H](CNC3=CC=C(C=C3)C(=O)N[C@@H](CCC([O-])=O)C([O-])=O)N2C=O)\N1 | 494 | 552 | 529
COc1ccc2cc([C@H](C)C(=O)O)ccc2c1 | 503 | 510 | 524
CC/1=C2/N(C(=O)C(=C1)/NC3=CC(=NC=N3)N)C4(CCCCC4)NC2=O | 594 | 641 | 537
CC(C)Cn1cnc2c(N)nc3ccccc3c21 | 640 | 683 | 630
CC(NCCc1ccc(O)cc1)C(O)c1ccc(O)cc1 (stereo unspecified) | 523 | 592 | 496
CC1=CC=CC=C1N2\C(=N/C3=C(C(=CC=C3)C)C2=O)C[N]4C=NC5=C4N=CN=C5N | 555 | 643 | 583
COc1ccc(C2CNC(=O)C2)cc1OC1CCCC1 (stereo unspecified) | 451 | 538 | 501
Cn1c(/C=C/CO)c(CO)c2c1C(=O)C=C(N1CC1)C2=O | 461 | 580 | 514
CN1C(=O)CC[S+](=O)([O-])C1c1ccc(Cl)cc1 (stereo unspecified) | 553 | 534 | 572
C[C@]12CC(=O)[C@H]3[C@@H](CC\C4=C\C(=O)\C=C/[C@]34C)[C@@H]1CC[C@]2(O)C(=O)CO | 547 | 652 | 580
O=C(O)Cn1nnc(-c2cc(N3CCC(Oc4cc(F)ccc4Br)CC3)no2)n1 | 491 | 594 | 515
C[C@H](c1ccc(F)cc1CCCC(=O)O)N(c1cc(F)ccc1F)[S+](=O)([O-])c1ccc(Cl)cc1 | 519 | 596 | 553
N[S+](=O)([O-])c1cc2c(cc1Cl)NC(C(Cl)Cl)N[S+]2(=O)[O-] (stereo unspecified) | 477 | 591 | 536
O=C1NC(=O)/C(=C\c2ccc(-c3ccc(F)cc3)o2)S1 | 471 | 572 | 522
O=P1(N(CCCl)CCCl)NCCCO1 (stereo unspecified) | 534 | 578 | 526
CN1\C(=C(\O)C2=CC=CC=C2[S+]1([O-])=O)C(=O)NC3=NC=C(C)S3 | 461 | 523 | 511

Structure (SMILES) | area under concentration-response curve (CU-ACC1) | area under concentration-response curve (CU-ACC2) | area under concentration-response curve (NCI-H295R)
NC(=O)c1ncn([C@@H]2O[C@H](CO)[C@@H](O)[C@H]2O)c1N | 418 | 519 | 545
COC1=CC=C(C=C1)C/2=C(OC3O[C@@H](C)[C@H](O)[C@@H](O)[C@H]3O)/C(=O)C4=C(O2)C(=C(OC5O[C@H](CO)[C@@H](O)[C@H](O)[C@H]5O)C=C4O)CC=C(C)C (stereo partly specified) | 510 | 624 | 564
COC(=O)N[C@@H](C)CNc1nccc(-c2cn(C(C)C)nc2-c2cc(Cl)cc(N[S+](C)(=O)[O-])c2F)n1 | 497 | 566 | 539
N=C(N)c1ccc2[nH]c(-c3cc(CC(=O)N[C@@H](CC(=O)O)C(=O)O)cc(-c4cc([S+](N)(=O)[O-])ccc4O)c3O)nc2c1 | 595 | 620 | 562
C#C[C@]1(O)CC[C@H]2[C@@H]3CCc4cc(OC)ccc4[C@H]3CC[C@@]21C | 414 | 475 | 457
CCNC(=O)Nc1ccc(Oc2ncnc(N)c2/C=N/OC)cc1Cl | 509 | 645 | 567
CCCCCCCCCCCC(CC1OC(=O)C1CCCCCC)OC(=O)C(CC(C)C)NC=O (stereo unspecified) | 474 | 517 | 336
COC1=CC(=CC=C1)C2=CC=C(NC(=O)/C3=C(/CCC3)C(O)=O)C(=C2)F | 450 | 509 | 491
CC(C)C[C@@H](C(=O)N[C@H](C(=O)OC1CCCC1)c1ccccc1)[C@H](O)C(=O)NO | 463 | 551 | 539
Cc1cc(SCc2sc(-c3ccc(C(F)(F)F)c(F)c3)nc2C)ccc1OCC(=O)O | 539 | 493 | 565
COc1cc2c(NC3CCN(C4CCCCC4)CC3)nc(N3CCCN(C(C)C)CC3)nc2cc1OCCCN1CCCCC1 | 534 | 562 | 519
N#C/C(=C\c1ccc(O)c(O)c1)C(=O)NCc1ccccc1 | 427 | 605 | 572
CC(=O)OC[C@@H]1O[C@H]([C@H](OC(C)=O)[C@@H]1OC(C)=O)N2\C=C/C(=O)NC2=O | 497 | 521 | 459
COC1=CC=C(C=C1O)C/2=C/C(=O)C3=C(O2)C=C(O[C@@H]4O[C@H](CO[C@@H]5O[C@@H](C)[C@H](O)[C@@H](O)[C@H]5O)[C@@H](O)[C@H](O)[C@H]4O)C=C3O | 502 | 582 | 554
C/C=C(/C)C(=O)O[C@H]1C(C)=CC23C(=O)C(C=C(CO)[C@@H](O)[C@]12O)[C@H]1[C@@H](C[C@H]3C)C1(C)C (stereo partly specified) | 399 | 505 | 484
OC1=CC2=C(C(=C1)O)C(=O)\C(=C(/O2)C3=CC(=C(O)C=C3)O)O | 499 | 607 | 545
CC(C)NCC(O)c1ccc(N[S+](C)(=O)[O-])cc1 (stereo unspecified) | 530 | 624 | 570
O=C1N\C=N/C2=C1C=N[NH]2 | 522 | 531 | 557
O=C(O)CC(C(=O)O)N1C(=O)/C(=C2/C(=O)Nc3ccc(Br)cc32)SC1=S (stereo unspecified) | 569 | 593 | 567
O=C(c1cncc(Br)c1)N1CCC(N2CCCC2)CC1 | 489 | 440 | 528
O=C(c1ccc(N[S+](=O)([O-])c2cccc3cccnc23)cc1)N1CCN(CC2CC2)CC1 | 485 | 486 | 527
O=C(O)CCn1c2c(c3ccccc31)C[C@H](N[S+](=O)([O-])c1ccc(F)cc1)CC2 | 445 | 540 | 496
O=C(O)C[C@H]1CC[C@H](c2ccc(-c3ccc(Nc4ccc(C(F)(F)F)nc4)cn3)cc2)CC1 | 504 | 580 | 538
